Experimental data as given in patent US20100215741A1, “PHARMACEUTICAL COMPOUNDS” (priority 2009, published 2010).
Read-outs that look alike come from different tables or passages of the source.

Assays:
CB1 receptors = biological target: T1, CB1 receptors (Mus musculus, UniProt P47746); experiment: radioreceptor binding, displacement of [3H]-CP-55,940, CB1 (brain)
T1 construct: the complete brain (excluding the cerebellum) and the spleen were quickly dissected and kept in ice; from tissue; host or cells: mouse brain (excluding the cerebellum), membrane preparation
T1 sequence (P47746 whole entry): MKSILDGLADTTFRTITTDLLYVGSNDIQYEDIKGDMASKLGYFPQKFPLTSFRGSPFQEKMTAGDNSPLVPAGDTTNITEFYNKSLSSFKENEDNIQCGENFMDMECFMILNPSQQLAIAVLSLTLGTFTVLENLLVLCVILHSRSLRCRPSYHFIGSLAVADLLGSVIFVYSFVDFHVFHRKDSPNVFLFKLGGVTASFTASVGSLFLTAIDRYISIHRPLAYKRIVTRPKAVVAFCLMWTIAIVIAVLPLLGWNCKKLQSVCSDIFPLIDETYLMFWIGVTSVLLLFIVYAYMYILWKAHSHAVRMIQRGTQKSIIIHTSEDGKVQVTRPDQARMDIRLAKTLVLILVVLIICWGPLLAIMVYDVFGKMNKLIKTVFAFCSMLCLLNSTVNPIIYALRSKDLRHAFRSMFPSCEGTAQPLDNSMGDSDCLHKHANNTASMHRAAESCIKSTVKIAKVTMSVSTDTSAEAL
Method: (§1) The affinity of the compounds towards the CB1 and CB2 cannabinoidergic receptors was evaluated in vitro by radioreceptor binding studies using the following method.
(§2) The technique of the receptor binding allows to establish if, and with which affinity and specificity, a specific compound binds to a particular receptor. To evaluate the affinity of a specific compound to a particular receptor it is necessary to challenge in a particular tissue preparation wherein those specific receptors are present the compound to be tested with a radioactive labelled compound whose affinity for the same receptors is known. […] The amount of radioactivity present in the receptor-compound complex allows furthermore to stimate with great accuracy the amount of compound bound to the receptor. By said method it is therefore possible to stablish quickly the affinity of a new compound towards a specific receptor and thus to determine its pharmacological activity. With the same experimental protocol it is possible to evaluate the affinity of the compound towards other receptors and thus establish its specificity degree toward said other receptors.
(§3) The food and water were ad libitum.
(§4) The procedure adopted, based on the use of the compound [^3H]-CP-55,940 (New England Nuclear, Boston, Mass., USA), requires the use of the mouse brain as biological tissue for the evaluation of the affinity towards the CB1 receptors and of the mouse spleen for the affinity assay for the CB2 receptors.
(§5) The animals were sacrificed by cervical dislocation and the complete brain (excluding the cerebellum) and the spleen were quickly dissected and kept in ice.
(§6) The tissue was homogenized in 15 volumes (weight/-volume) of TME buffer (50 Mm Tris, 1 mM EDTA and 3 mM MgCl2, pH 7.4) by an Ultra-Turrax and subsequently centrifuged for 10 minutes at 1086×g in a centrifuge refrigerated at 4° C. The recovered supernatant was centrifuged at 45,000×g for 30 minutes at 4° C. by using a Beckman SW41 rotor and the obtained pellet was resuspended in 50 volumes of TME.
(§7) The thus obtained membranes (50-80 μg of proteins) were incubated in the presence of 1 nM of [^3H]-CP55.940 for 1 hour at 30° C. in a final volume of 0.5 ml of TME buffer containing […] (BSA). The non specific binding was measured in the presence of CP55.940 at a 1 μM concentration.
(§8) All the experiments were carried out in polypropylene test tubes pretreated with Sigma-Cote (Sigma Chemical Co. Ltd., Poole, UK) for reducing non specific binding.
(§9) In order to determine the competitive inhibition binding curves, eight different concentrations of each compound were used.
(§10) Incubation was stopped by addition of TME buffer (at 4° C.) containing 5 mg/ml of BSA, and subsequent filtration under vacuum by Whatman GFC filters pretreated with 0.5% of polyethylamine (PEI) and by using a filtering device (Brandell, Gaithersburg, Md., USA). The filters were washed 3 times with 5 ml of Tris HCl buffer (pH 7.4, 4° C.) containing 1 mg/ml of BSA and separately placed in plastic vials containing 4 ml of scintillating liquid (Ultima Gold MV, Packard).
(§11) The radioactivity present in the filters was determined by a scintillator spectrophotometer (Tricarb® 2100, Packard, Meridien, USA).
(§12) Protein determination was carried out by the Bradford method by using the protocol and the reactants supplied by Bio-Rad (Milano, Italy).

CB2 receptors = biological target: T2, CB2 receptors (Mus musculus, UniProt P47936); experiment: radioreceptor binding, displacement of [3H]-CP-55,940, CB2 (spleen)
T2 construct: the complete brain (excluding the cerebellum) and the spleen were quickly dissected and kept in ice; from tissue; host or cells: mouse spleen, membrane preparation
T2 sequence (P47936 whole entry): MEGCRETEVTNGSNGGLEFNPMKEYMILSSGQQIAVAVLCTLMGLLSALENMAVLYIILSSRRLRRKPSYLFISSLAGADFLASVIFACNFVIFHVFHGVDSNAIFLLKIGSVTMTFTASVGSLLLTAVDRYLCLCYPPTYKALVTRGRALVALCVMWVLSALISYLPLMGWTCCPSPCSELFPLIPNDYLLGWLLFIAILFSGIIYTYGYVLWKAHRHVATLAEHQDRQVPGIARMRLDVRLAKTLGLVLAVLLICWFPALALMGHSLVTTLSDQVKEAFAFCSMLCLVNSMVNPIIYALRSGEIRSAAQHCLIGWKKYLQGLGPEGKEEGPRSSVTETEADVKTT
Method: as §1, §2, §3, §4, §5, §6, §7, §8, §9, §10, §11, §12

[1] = mouse spleen membranes, 1 nM [3H]-CP55.940, 1 hour at 30° C., read-out: CB2 (spleen) Ki

`Cc1ccc2c(c1)oc1c(C(N)=O)nn(-c3ccc(Cl)cc3Cl)c12` [1-(2,4-dichlorophenyl)-6-methyl-1H-benzofuro [3,2-c]pyrazole-3-carboxamide] gave a melting point of 185 to 186 °C.
Work on `CC1(C)C2CCC(CNC(=O)c3nn(-c4ccc(Cl)cc4Cl)c4c3CCCc3ccc(Cl)cc3-4)C1C2` (stereo not shown) [Example 3.1, N-myrtanyl-9-chloro-1-(2′,4′-dichlorophenyl)-1,4,5,6-tetrahydrobenzo[6,7]cyclohepta[1,2-c]pyrazol-3-carboxamide] yielded a Ki (CB1 receptors) of 20 ± 5 nM and a Ki (CB2 receptors; [1]) of 23.3 ± 1.6 nM.
`CC1(C)C2CCC(CNC(=O)c3nn(-c4ccc(Cl)cc4Cl)c4c3CCOc3cc(Cl)ccc3-4)C1C2` (stereo not shown) [Example 3.3, N-myrtanyl-8-chloro-1-(2′,4′-dichlorophenyl)-4,5-dihydrobenzo-1H-6oxa-cyclohepta[1,2-c]pyrazol-3-carboxamide] showed a Ki (CB1 receptors) of 21.7 ± 3 nM, a Ki (CB2 receptors; [1]) of 325 ± 38 nM and a melting point of 142 to 143 °C.
For `CC1(C)C2CCC(CNC(=O)c3nn(-c4ccc(Cl)cc4Cl)c4c3CCCc3cc(Cl)ccc3-4)C1C2` (stereo not shown) [Example 3.4, N-myrtanyl-8-chloro-1-(2′,4′-dichlorophenyl)-1,4,5,6-tetrahydrobenzo[6,7]cyclohepta[1,2-c]pyrazol-3-carboxamide], the Ki (CB1 receptors) was 2.6 ± 0.17 nM and the Ki (CB2 receptors; [1]) was 19.6 ± 1.5 nM.
With `Cc1ccc2c(c1)Cc1c(C(=O)NCC3CCC4CC3C4(C)C)nn(-c3ccc(Cl)cc3Cl)c1-2` (stereo not shown) [Example 3.15, N-myrtanyl-1-(2′,4′-dichlorophenyl)-6-methyl-1,4-dihydroindeno[1,2-c]pyrazole-3-carboxamide] the Ki (CB1 receptors) was 350 ± 76 nM and the Ki (CB2 receptors; [1]) was 2.3 ± 0.5 nM.
`Cc1ccc2c(c1)oc1c(C(=O)NN3CCCCC3)nn(-c3ccc(Cl)cc3Cl)c12` [Example 3.20, N-piperidinyl-1-(2,4-dichlorophenyl)-6-methyl-1H-benzofuro[3,2-c]pyrazole-3-carboxamide] gave a Ki (CB1 receptors) of 1790 ± 330 nM, a Ki (CB2 receptors) of 12.9 ± 1.1 nM and a melting point of 155 to 157 °C.
With `Cc1ccc2c(c1)oc1c(C(=O)NN3CCCC3)nn(-c3ccc(Cl)cc3Cl)c12` [Example 3.21, N-pyrrolidinyl-1-(2,4-dichlorophenyl)-6-methyl-1H-benzofuro[3,2-c]pyrazole-3-carboxamide] the Ki (CB1 receptors) was 2720 ± 652 nM, the Ki (CB2 receptors) was 29.5 ± 8 nM and the melting point was 90 to 92 °C.
In the case of `Cc1ccc2c(c1)oc1c(C(=O)NN3CCOCC3)nn(-c3ccc(Cl)cc3Cl)c12` [Example 3.22, N-morpholin-4-yl-1-(2,4-dichlorophenyl)-6-methyl-1H-benzofuro[3,2-c]pyrazole-3-carboxamide], the Ki (CB1 receptors) is reported as 4060 ± 64 nM, the Ki (CB2 receptors) is reported as 37.7 ± 6.3 nM and the melting point is reported as 178 to 180 °C.
Molecule `Cc1ccc2c(c1)oc1c(C(=O)NC3CCCCC3)nn(-c3ccc(Cl)cc3Cl)c12` [Example 3.23, N-cyclohexyl-1-(2,4-dichlorophenyl)-6-methyl-1H-benzofuro[3,2-c]pyrazole-3-carboxamide] has a Ki (CB1 receptors) of 1250 ± 129 nM, a Ki (CB2 receptors) of 15.6 ± 4 nM and a melting point of 140 to 142 °C.
`Cc1ccc2c(c1)oc1c(C(=O)N[C@H]3C[C@@H](C)CC[C@@H]3C(C)C)nn(-c3ccc(Cl)cc3Cl)c12` [Example 3.24, N-2-isopropyl-5-methyl-cyclohexyl-1-(2,4-dichlorophenyl)-6-methyl-1H-benzofuro[3,2-c]pyrazole-3-carboxamide] showed a Ki (CB1 receptors) of 38.2 ± 6 nM, a Ki (CB2 receptors; [1]) of 2.3 ± 0.3 nM and a melting point of 70 to 72 °C.
With `Cc1ccc2c(c1)oc1c(C(=O)N[C@@H]3C[C@H]4C[C@@H]([C@@H]3C)C4(C)C)nn(-c3ccc(Cl)cc3Cl)c12` [Example 3.25, N-2,6,6-trimethyl-bicyclo[3.1.1]hept-3-yl-1-(2,4-dichlorophenyl)-6-methyl-1H-benzofuro[3,2-c]pyrazole-3-carboxamide] the Ki (CB1 receptors) was 2400 ± 629 nM, the Ki (CB2 receptors) was 3.7 ± 0.3 nM and the melting point was 85 to 87 °C.
With `Cc1ccc2c(c1)oc1c(C(=O)NC3C4(C)CCC(C4)C3(C)C)nn(-c3ccc(Cl)cc3Cl)c12` (stereo not shown) [Example 3.26, N-1,3,3-trimethyl-bicyclo[2.2.1]hept-2-yl-1-(2,4-dichlorophenyl)-6-methyl-1H-benzofuro[3,2-c]pyrazole-3-carboxamide] the Ki (CB1 receptors) was 257 ± 7 nM, the Ki (CB2 receptors) was 2.5 ± 0.3 nM and the melting point was 84 to 86 °C.
Molecule `Cc1ccc2c(c1)oc1c(C(=O)NC3CC4CCC3(C)C4(C)C)nn(-c3ccc(Cl)cc3Cl)c12` (stereo not shown) [Example 3.27, N-1,7,7-trimethyl-bicyclo[2.2.1]hept-2-yl-1-(2,4-dichlorophenyl)-6-methyl-1H-benzofuro[3,2-c]pyrazole-3-carboxamide] has a Ki (CB1 receptors) of 469 ± 64 nM, a Ki (CB2 receptors) of 3.5 ± 0.6 nM and a melting point of 78 to 80 °C.
`Cc1ccc2c(c1)oc1c(C(=O)NC34CC5CC(CC(C5)C3)C4)nn(-c3ccc(Cl)cc3Cl)c12` [Example 3.28, N-adamantan-1yl-1-(2,4-dichlorophenyl)-6-methyl-1H-benzofuro[3,2-c]pyrazole-3-carboxamide] gave a Ki (CB1 receptors) of 363 ± 92 nM, a Ki (CB2 receptors) of 28 ± 6.6 nM and a melting point of 210 to 212 °C.
Molecule `Cc1ccc2c(c1)oc1c(C(=O)NC3C4CC5CC(C4)CC3C5)nn(-c3ccc(Cl)cc3Cl)c12` (stereo not shown) [Example 3.29, N-adamantan-2-yl-1-(2,4-dichlorophenyl)-6-methyl-1H-benzofuro[3,2-c]pyrazole-3-carboxamide] has a Ki (CB1 receptors) of 537 ± 132 nM, a Ki (CB2 receptors) of 17.5 ± 0.9 nM and a melting point of 209 to 211 °C.
